Experimental data as given in US20250381207A1, “FLAVONOID-CONTAINING COMPOSITIONS AND TREATMENT OF VIRAL DISEASES WITH SAME” (priority 2024, published 2025).

Columns and labels:
ACE2 = ACE2 (Homo sapiens, UniProt Q9BYF1); test: In vitro fluorescence ligand binding assay (relative ACE2 inhibition); details: for remaining activity at 100 µM: read-out: % of control/blank fluorescence; for IC50: fluorescence binding assay, relative ACE2 inhibition
Description: A fluorescence ligand bind assay (Lora Benoit, Vinayak Shenoy, Simon Meykler, Ali Mohseni. SARS-COV-2 spike protein 13-mer subdomain corresponds to the drug-binding domain of glutamyl-propyl-tRNA synthetase 1 and is targetable by halofuginone, 22 Jul. 2021, PREPRINT (Version 1) available at Research Square [world wide web at doi.org/10.21203/rs.3.rs-738132/v1]) used to test the binding of various flavonoids. Fluorescence values increased over time (likely due to evaporation at 37° C.), but differences in fluorescence intensity after a kinetic read may be used to calculate relative ACE2 inhibition.

SARS-COV-2 spike protein = target: T1, SARS-COV-2 spike protein (Severe acute respiratory syndrome coronavirus 2, UniProt P0DTC2); test: Surface plasmon resonance (SPR) analysis; type: binding; details: for Activity (actual) / Activity (calculated) / Rmax (actual) / Rmax (calculated): SPR, analyte 0.4-100 μM, SCK; for Rmax (actual) / Rmax (calculated): 25° C.
T1 construct: Target/ligand: SARS-COV2 RBD; 4815 RU captured; purchased R&D Systems, Inc., Minneapolis, MN AVI10500

[1] = SPR FIG. 15A, 50 μM, SARS-COV2 RBD on SA chip

Sequence of ACE2 (Q9BYF1 18-805): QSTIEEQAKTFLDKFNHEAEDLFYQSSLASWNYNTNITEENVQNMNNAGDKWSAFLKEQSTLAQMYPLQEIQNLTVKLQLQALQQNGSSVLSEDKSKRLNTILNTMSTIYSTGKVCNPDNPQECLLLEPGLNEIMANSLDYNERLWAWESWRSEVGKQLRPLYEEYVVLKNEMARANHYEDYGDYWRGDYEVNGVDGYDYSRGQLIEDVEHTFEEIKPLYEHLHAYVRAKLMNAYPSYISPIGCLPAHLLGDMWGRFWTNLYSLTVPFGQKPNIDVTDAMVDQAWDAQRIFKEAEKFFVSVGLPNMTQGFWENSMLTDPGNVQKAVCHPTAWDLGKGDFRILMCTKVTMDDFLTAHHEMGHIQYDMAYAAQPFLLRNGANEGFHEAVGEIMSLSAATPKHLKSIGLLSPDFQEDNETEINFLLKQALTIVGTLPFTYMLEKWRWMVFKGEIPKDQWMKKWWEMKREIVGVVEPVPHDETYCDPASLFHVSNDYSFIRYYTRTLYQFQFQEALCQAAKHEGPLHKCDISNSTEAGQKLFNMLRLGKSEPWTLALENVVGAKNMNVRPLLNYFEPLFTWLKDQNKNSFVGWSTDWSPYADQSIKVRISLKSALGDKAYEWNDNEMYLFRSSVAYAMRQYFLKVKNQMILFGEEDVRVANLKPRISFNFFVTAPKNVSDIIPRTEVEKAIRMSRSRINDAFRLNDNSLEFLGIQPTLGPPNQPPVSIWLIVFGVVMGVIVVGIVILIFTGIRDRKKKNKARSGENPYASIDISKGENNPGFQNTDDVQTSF

Compound	remaining activity at 100 µM (ACE2)	IC50 (ACE2)	Activity (actual) (SARS-COV-2 spike protein; SARS-COV2 RBD on SA chip)	Activity (calculated) (SARS-COV-2 spike protein; SARS-COV2 RBD on SA chip)	Rmax (actual) (SARS-COV-2 spike protein; SARS-COV2 RBD on SA chip)	Rmax (calculated) (SARS-COV-2 spike protein; SARS-COV2 RBD on SA chip)	also measured
O=C1C[C@@H](c2ccc(O)cc2)Oc2cc(O)cc(O)c21 [Naringenin, naringenin]	57%	36.2 µM					
COc1ccc(C[C@H](N)C(=O)N[C@H]2[C@@H](O)[C@H](n3cnc4c(N(C)C)ncnc43)O[C@@H]2CO)cc1 [Puromycin, puromycin, reference compound]							Percent viable cells (%) normalized to vehicle control and puromycin (Calu-3 cell line; human): 0.00%
C[C@@H]1O[C@@H](OC[C@H]2O[C@@H](Oc3c(-c4ccc(O)c(O)c4)oc4cc(O)cc(O)c4c3=O)[C@H](O)[C@@H](O)[C@@H]2O)[C@H](O)[C@H](O)[C@H]1O [Rutin, rutin]	44%	39.4 µM	21%	17%	21.0 RU	16.7 RU	
COc1ccc(C2CC(=O)c3c(O)cc(O)cc3O2)cc1O (stereo not drawn) [hesperetin]							Calu-3 viability after compound + SARS-COV-2 spike protein treatment, in words (Calu-3 cell line): decrease of viability in a hesperetin concentration-dependent manner
COc1ccc(-c2cc(=O)c3c(OC)c(OC)c(OC)c(OC)c3o2)cc1OC [nobiletin]	60%	26.5 µM					
hesperidin			72%	40%	72.7 RU	40.4 RU	Activity (50 μM) (SARS-COV-2 spike protein; [1]): 98%; Rmax (50 μM) (SARS-COV-2 spike protein; [1]): 94.3 RU; SPR binding activity, in words (SARS-COV-2 spike protein; initial experiment, MCK mode from 10 μM): displayed binding activity with slow dissociation; activity (inhibitory effect on binding to SARS-COV-2 spike protein and ACE2) (SARS-COV-2 spike protein; summary statement of Example 1): 82%; viability normalized to SARS-COV-2 spike protein treatment alone and vehicle (Calu-3 cell line): over 80%
